Assay results: paper PMC9568543, “Bee-safe peptidomimetic acaricides achieved by comparative genomics” (Scientific Reports, 2022)
“And” between values parts separate entries of the source, which are not always exact repeats. Identical values can stand only once. Where a SMILES comes first, the peptide text is derived from it. Where no end group is shown, it is not given here. [ ]: non-standard residue; d: D form. Phe(4-NO2) = N[C@@H](Cc1ccc([N+](=O)[O-])cc1)C(=O)O; Oic = O=C(O)[C@@H]1C[C@@H]2CCCC[C@@H]2N1; Phe(4-Cl) = N[C@@H](Cc1ccc(Cl)cc1)C(=O)O; Phe(4-F) = N[C@@H](Cc1ccc(F)cc1)C(=O)O; Hyp = O=C(O)[C@@H]1C[C@@H](O)CN1; β3hF = N[C@H](CC(=O)O)Cc1ccccc1; β3hL = CC(C)C[C@H](N)CC(=O)O; β3hP = O=C(O)C[C@@H]1CCCN1

Columns and labels:
[1] = target: T1, Varroa mite proctolin receptor (VdProctR) (Varroa destructor, UniProt A0A7T1TE40); test: Receptor activity assay (aequorin luminescence), CHO cells transiently expressing the receptor, first set of ligands; format: cell-based; settings: for Fold change: EC50 relative to proctolin, first set (transient expression); for efficacy (maximal response) compared with proctolin: activities at 1 μM and 10 μM; for EC50: cells with transient expression of the receptor; for potency of double-replacement analog over the corresponding single Y2 replacement analog (factor): 2338 vs 2333, 2337 vs 2329
T1 sequence (A0A7T1TE40 entry or part of it): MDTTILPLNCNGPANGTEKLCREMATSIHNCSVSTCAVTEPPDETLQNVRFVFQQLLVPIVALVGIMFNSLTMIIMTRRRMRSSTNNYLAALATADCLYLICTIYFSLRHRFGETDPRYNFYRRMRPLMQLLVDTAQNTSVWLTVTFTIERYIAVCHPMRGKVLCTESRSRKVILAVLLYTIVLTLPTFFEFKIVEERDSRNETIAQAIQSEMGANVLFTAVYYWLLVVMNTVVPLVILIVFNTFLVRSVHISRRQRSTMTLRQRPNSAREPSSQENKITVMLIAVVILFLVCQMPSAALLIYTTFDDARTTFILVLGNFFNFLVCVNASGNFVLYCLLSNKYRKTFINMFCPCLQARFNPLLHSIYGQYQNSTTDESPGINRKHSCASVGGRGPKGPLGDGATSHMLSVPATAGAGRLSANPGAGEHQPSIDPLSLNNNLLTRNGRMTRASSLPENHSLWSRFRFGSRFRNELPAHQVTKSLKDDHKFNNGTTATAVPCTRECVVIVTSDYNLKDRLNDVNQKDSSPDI
Description: (§1) Approximately thirty hours after transfection, the cells were collected and preincubated with coelenterazine h for the functional assay, as previously described[30],[31],[52]. The ligands in serial dilutions were loaded into 96-well opaque plates. Cells treated with coelenterazine h were injected into each well on an Orion microplate luminometer (Berthold) luminescent plate reader. The luminescence was measured for 20 s immediately after the cell injections. Data analyses were performed to determine the accumulated luminescence value for 20 s after extraction of blank-well luminescence. […] The three biological replications were regressed for the dose–response curves with 95% confidence intervals (Table 1). For the tests of the second set of ligands, we used the cell line that stably expressed VdProctR, which were selected by Zeocin for 5 passages.

[2] = target: T1, Varroa mite proctolin receptor (VdProctR); test: Receptor activity assay, CHO cell line stably expressing the receptor, second set of ligands; format: cell-based; settings: for Fold change: EC50 relative to proctolin, second set (stable expression)
Description: as §1

[3] = tested on: proctolin myotropic assays in cockroach, locust and beetle species; settings: cited from earlier work
worker honey bee = test: Acute toxicity on worker honey bee by injection, 24 h; settings: 50 nL of 200 µM (10 pmol), 24 h observation, n = 4
Description: For honey bee (Apis mellifera) assays, honey bee workers from healthy colonies were collected from Honeybee Valley of Ghent University, Belgium, and maintained in cages on sugar dough and water, under standardized conditions of 28–30 °C, 60–65% air humidity and continuous darkness. The colony were maintained with a periodic sanitary control that the honeybee hives are free of pathogens, diseases and viruses. There was no Varroa mite infection in the honeybee hives at the moment of collecting the workers for the assays. […] This was realized by injecting a volume of 50 nL of a concentration of the compound of 200 µM. Potential effects on survival were scored at 24 h after injection. […] This test was done with the following compounds were tested: 2439, 2334, 2336, Ac-2442 and controls. Subsequently, working solutions were freshly prepared prior to the bioassays by diluting the stock with distilled water to the required concentration.

With RGYLPT [Analog G2, RGYLPT] the Fold change [1] was 71648.2.

For `CC(C)C[C@H](NC(=O)[C@@H](Cc1ccc(O)cc1)NC(=O)[C@@H](N)CCCNC(=N)N)C(=O)N1CCC[C@H]1C(=O)N[C@H](C(=O)O)[C@@H](C)O` [Analog 2329, R[dY]LPT] (H-R[dY]LPT-OH; N-terminus and C-terminus assumed), the Fold change [1] was 824.5.

Molecule RYLGPT [Analog G4, RYLGPT] has a Fold change [1] of 5444.9.

For `CC(C)C[C@H](NC(=O)[C@H](Cc1ccc(F)cc1)NC(=O)[C@@H](N)CCCNC(=N)N)C(=O)N1C[C@H](O)C[C@H]1C(=O)N[C@H](C(=O)O)[C@@H](C)O` [Analog 2441, R[Phe(4-F)]L[HyP]T] (H-R[Phe(4-F)]L[Hyp]T-OH; N-terminus and C-terminus assumed), the Fold change [2] was 0.7 and the “activity compared with proctolin” value ([2]; second set, stable expression) was “higher activity than proctolin”.

In the case of `CC(C)C[C@H](NC(=O)[C@H](Cc1ccc(O)cc1)NC(=O)[C@H](N)CCCNC(=N)N)C(=O)N1CCC[C@H]1C(=O)N[C@H](C(=O)O)[C@@H](C)O` [Analog 2330, [dR]YLPT] (H-[dR]YLPT-OH; N-terminus and C-terminus assumed), the “activity in earlier in vivo myotropic bioassays” value [3] is listed as “no activity”, the “efficacy (maximal response) compared with proctolin” value (“efficacy … compared with proctolin” below) [1] is listed as “higher than that of proctolin” and the EC50 ([1]; first set of peptidomimetics, listed as R1 replacement by dR, read-out: EC50) is listed as 5.62 nM.

Work on `CC(=O)N[C@@H](CCCNC(=N)N)C(=O)N[C@@H](Cc1ccc(Cl)cc1)C(=O)N[C@@H](CC(C)C)C(=O)N1C[C@H](O)C[C@H]1C(=O)N[C@H](C(=O)O)[C@@H](C)O` [Ac-2443, Ac-R[Phe(4-Cl)]L[HyP]T] (Ac-R[Phe(4-Cl)]L[Hyp]T-OH) yielded a Fold change [2] of 37.5.

For GRYLPT [Analog G1, GRYLPT], the Fold change [1] was 199.7.

Molecule `CC(C)C[C@H](NC(=O)C[C@H](Cc1ccccc1)NC(=O)[C@@H](N)CCCNC(=N)N)C(=O)N1CCC[C@H]1C(=O)N[C@H](C(=O)O)[C@@H](C)O` [Analog 2333, R[β3F]LPT] (H-R[β3hF]LPT-OH) has a Fold change [1] of 572.0.

Molecule `CC(C)C[C@@H](CC(=O)N1CCC[C@H]1C(=O)N[C@H](C(=O)O)[C@@H](C)O)NC(=O)[C@H](Cc1ccc(O)cc1)NC(=O)[C@@H](N)CCCNC(=N)N` [Analog 2332, RY[β3L]PT] (H-RY[β3hL]PT-OH) has a Fold change [1] of 661.7.

In the case of `CC(=O)N[C@@H](CCCNC(=N)N)C(=O)N[C@@H](Cc1ccc([N+](=O)[O-])cc1)C(=O)N[C@@H](CC(C)C)C(=O)N1C[C@H](O)C[C@H]1C(=O)N[C@H](C(=O)O)[C@@H](C)O` [Ac-2442, Ac-R[Phe(4-NO2)]L[HyP]T] (Ac-R[Phe(4-NO2)]L[Hyp]T-OH), the “negative effects after injection into thorax” value (worker honey bee) is reported as “did not show any negative effects”.

With “RYL[β3P]T [Analog 2331] (H-RYL[β3hP]T-OH; N-terminus and C-terminus assumed; SMILES CC(C)C[C@H](NC(=O)[C@H](Cc1ccc(O)cc1)NC(=O)[C@@H](N)CCCNC(=N)N)C(=O)N1CCC[C@H]1CC(=O)N[C@H](C(=O)O)[C@@H](C)O)” the “efficacy … compared with proctolin” value [1] was “higher than that of proctolin”.

`CC(=O)N[C@@H](CCCNC(=N)N)C(=O)N[C@@H](Cc1ccc(F)cc1)C(=O)N[C@@H](CC(C)C)C(=O)N1C[C@H](O)C[C@H]1C(=O)N[C@H](C(=O)O)[C@@H](C)O` [Ac-2441, Ac-R[Phe(4-F)]L[HyP]T] (Ac-R[Phe(4-F)]L[Hyp]T-OH; N-terminus and C-terminus assumed) showed a Fold change [2] of 61.5.

For RYLPTG [Analog G6, RYLPTG], the Fold change [1] was 4088.2 and the “efficacy … compared with proctolin” value [1] was “higher than that of proctolin”.

In the case of `CC(C)C[C@H](NC(=O)[C@H](Cc1ccc(F)cc1)NC(=O)[C@@H](N)CCCNC(=N)N)C(=O)N1CCC[C@H]1C(=O)N[C@H](C(=O)O)[C@@H](C)O` [Analog 2438, R[Phe(4-F)]LPT] (H-R[Phe(4-F)]LPT-OH), the EC50 [2] is reported as 16.7 nM and the Fold change [2] is reported as 0.7.

In the case of `CC(C)C[C@H](NC(=O)[C@H](Cc1ccc(Cl)cc1)NC(=O)[C@@H](N)CCCNC(=N)N)C(=O)N1CCC[C@H]1C(=O)N[C@H](C(=O)O)[C@@H](C)O` [Analog 2440, R[Phe(4-Cl)]LPT] (H-R[Phe(4-Cl)]LPT-OH), the EC50 [2] is reported as 5.73 nM and the Fold change [2] is reported as 0.2.

For `CC(C)C[C@H](NC(=O)[C@H](Cc1ccc(O)cc1)NC(=O)[C@@H](N)CCCNC(=N)N)C(=O)N1CCC[C@H]1C(=O)N[C@@H](C(=O)O)[C@H](C)O` [Analog 2326, RYLP[dT]] (H-RYLP[dT]-OH; N-terminus and C-terminus assumed), the Fold change [1] was 7654.8.

RYGLPT [Analog G3, RYGLPT] showed a Fold change [1] of 91508.8.

Molecule RYLPGT [Analog G5, RYLPGT] has a Fold change [1] of 3095.5.

With `CC(C)C[C@H](NC(=O)C[C@H](Cc1ccccc1)NC(=O)[C@@H](N)CCCNC(=N)N)C(=O)N1C[C@H](O)C[C@H]1C(=O)N[C@H](C(=O)O)[C@@H](C)O` [Analog 2338, R[β3F]L[HyP]T] (H-R[β3hF]L[Hyp]T-OH) the “efficacy (maximal response)” value [1] was “full efficacy”, the “potency of double-replacement analog over the corresponding single Y2 replacement analog (factor)” value [1] was 8 and the EC50 ([1]; EC50, first set of peptidomimetics) was 33 nM and 33.2 nM. The Fold change [1] was 136.1.

For `CC(C)C[C@H](NC(=O)[C@@H](Cc1ccc(O)cc1)NC(=O)[C@@H](N)CCCNC(=N)N)C(=O)N1C[C@H](O)C[C@H]1C(=O)N[C@H](C(=O)O)[C@@H](C)O` [Analog 2337, R[dY]L[HyP]T] (H-R[dY]L[Hyp]T-OH; N-terminus and C-terminus assumed), the “efficacy (maximal response)” value [1] was “full efficacy”, the “potency of double-replacement analog over the corresponding single Y2 replacement analog (factor)” value [1] was 4 and the Fold change [1] was 143.5.

For `CC(C)C[C@H](NC(=O)[C@H](Cc1ccc([N+](=O)[O-])cc1)NC(=O)[C@@H](N)CCCNC(=N)N)C(=O)N1CCC[C@H]1C(=O)N[C@H](C(=O)O)[C@@H](C)O` [Analog 2439, R[Phe(4-NO2)]LPT] (H-R[Phe(4-NO2)]LPT-OH), the “negative effects after injection into thorax” value (worker honey bee) was “did not show any negative effects”.

Work on `CC(C)C[C@H](NC(=O)[C@@H](Cc1ccc(O)cc1)NC(=O)[C@@H](N)CCCNC(=N)N)C(=O)N1[C@H](C(=O)N[C@H](C(=O)O)[C@@H](C)O)C[C@@H]2CCCC[C@@H]21` [Analog 2340, R[dY]L[Oic]T] (H-R[dY]L[Oic]T-OH) yielded a Fold change [1] of 529.7.

For `CC(C)C[C@@H](NC(=O)[C@H](Cc1ccc(O)cc1)NC(=O)[C@@H](N)CCCNC(=N)N)C(=O)N1CCC[C@H]1C(=O)N[C@H](C(=O)O)[C@@H](C)O` [Analog 2328, RY[dL]PT] (H-RY[dL]PT-OH; N-terminus and C-terminus assumed), the Fold change [1] was 558.8.

`CC(C)C[C@H](NC(=O)[C@H](Cc1ccc(O)cc1)NC(=O)[C@@H](N)CCCNC(=N)N)C(=O)N1CCC[C@@H]1C(=O)N[C@H](C(=O)O)[C@@H](C)O` [Analog 2327, RYL[dP]T] (H-RYL[dP]T-OH; N-terminus and C-terminus assumed) gave a Fold change [1] of 1881.1.

With “RYL[HyP]T [Analog 2334] (H-RYL[Hyp]T-OH; N-terminus and C-terminus assumed; SMILES CC(C)C[C@H](NC(=O)[C@H](Cc1ccc(O)cc1)NC(=O)[C@@H](N)CCCNC(=N)N)C(=O)N1C[C@H](O)C[C@H]1C(=O)N[C@H](C(=O)O)[C@@H](C)O)” the “efficacy … compared with proctolin” value [1] was “higher than that of proctolin”.
